Consider 26 molecules from patent US20070004634A1 (Novo Nordisk A/S, priority 1998, published 2007).

The target in experiment [1] is T1, IR (Homo sapiens, UniProt P06213). Briefly: IR-IC50 Biacore. More on the design: replacing the transmembrane domain and the intracellular domain of IR with constant domains from immunoglobulin Fc or λ subunits; made in house; host or cells: human embryonic kidney 293 cells (Bass et al.). On the technique in general: In SPR one partner is held on a chip, and binding of the other changes the refractive index at the surface.
Target sequence in this assay (P06213 28-758 limits assumed): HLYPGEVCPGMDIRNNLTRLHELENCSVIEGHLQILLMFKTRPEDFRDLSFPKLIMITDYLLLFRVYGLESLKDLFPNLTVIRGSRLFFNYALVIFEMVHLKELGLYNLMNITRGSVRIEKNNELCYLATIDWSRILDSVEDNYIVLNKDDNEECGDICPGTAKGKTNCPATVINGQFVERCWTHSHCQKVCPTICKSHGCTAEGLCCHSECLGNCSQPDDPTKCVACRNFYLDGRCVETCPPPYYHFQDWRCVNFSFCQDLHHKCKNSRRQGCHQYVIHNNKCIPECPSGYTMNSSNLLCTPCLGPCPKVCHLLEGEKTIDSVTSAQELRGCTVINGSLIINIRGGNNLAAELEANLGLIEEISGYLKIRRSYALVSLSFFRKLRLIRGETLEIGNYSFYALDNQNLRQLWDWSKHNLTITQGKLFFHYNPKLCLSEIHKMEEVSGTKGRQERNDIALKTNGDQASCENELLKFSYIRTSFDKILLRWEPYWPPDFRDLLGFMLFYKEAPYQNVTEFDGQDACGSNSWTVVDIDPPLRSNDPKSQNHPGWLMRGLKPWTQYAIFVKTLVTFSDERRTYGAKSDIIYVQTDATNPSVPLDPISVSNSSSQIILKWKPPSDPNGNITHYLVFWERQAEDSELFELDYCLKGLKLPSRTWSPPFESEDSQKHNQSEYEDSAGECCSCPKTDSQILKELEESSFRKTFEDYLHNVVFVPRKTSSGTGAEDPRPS
Target sequence in this assay (P06213 763-1382 limits assumed): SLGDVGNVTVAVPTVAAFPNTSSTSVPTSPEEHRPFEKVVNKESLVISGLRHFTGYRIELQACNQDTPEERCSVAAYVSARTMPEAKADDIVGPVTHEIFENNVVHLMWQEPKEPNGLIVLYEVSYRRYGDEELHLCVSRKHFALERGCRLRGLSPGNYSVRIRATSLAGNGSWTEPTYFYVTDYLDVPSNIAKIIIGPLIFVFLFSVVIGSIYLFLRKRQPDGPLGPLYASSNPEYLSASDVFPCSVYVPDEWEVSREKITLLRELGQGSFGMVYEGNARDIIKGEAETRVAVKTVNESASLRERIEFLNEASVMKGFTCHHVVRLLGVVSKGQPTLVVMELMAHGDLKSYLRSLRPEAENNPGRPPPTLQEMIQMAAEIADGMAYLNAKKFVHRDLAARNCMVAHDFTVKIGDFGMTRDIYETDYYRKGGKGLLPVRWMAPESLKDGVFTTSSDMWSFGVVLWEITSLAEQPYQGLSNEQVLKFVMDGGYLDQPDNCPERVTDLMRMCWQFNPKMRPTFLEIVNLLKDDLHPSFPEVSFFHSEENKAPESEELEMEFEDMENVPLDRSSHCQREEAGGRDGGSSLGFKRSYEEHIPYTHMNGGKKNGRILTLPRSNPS

Experiment [2] deals with T1, IR. Briefly: Phage ELISA, binding of phage clones to IR (ratio over background). Particulars: ratio of IR divided by ratio of IGF-1R. A general note: In an ELISA, binding on a coated surface is turned into a signal by an enzyme label.
Target sequence in this assay (P06213 28-758 limits assumed): as the sequence (P06213 28-758 limits assumed) above
Target sequence in this assay (P06213 763-956 limits assumed): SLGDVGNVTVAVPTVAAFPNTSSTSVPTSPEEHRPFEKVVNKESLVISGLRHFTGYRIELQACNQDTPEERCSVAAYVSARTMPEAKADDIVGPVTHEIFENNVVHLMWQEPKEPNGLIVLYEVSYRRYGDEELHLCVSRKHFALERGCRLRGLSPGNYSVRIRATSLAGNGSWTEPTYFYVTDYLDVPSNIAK
The next experiment has as its target IGF-1R (Homo sapiens, UniProt P08069). Briefly: Phage ELISA, binding of phage clones to IGF-1R (ratio over background). The note with it: ratio of IGF-1R divided by ratio of IR.
For experiment [3], the system named is free fat cells (adipocytes). Briefly: Adipocyte / free fat cell (FFC) assay, 3H glucose incorporation into lipid.
Experiment [4] has as its target T2, human insulin receptor (HIR) (Homo sapiens, UniProt P06213).
T2 construct: made in house
The experiment can be described thus: Insulin receptor binding, competition with 125I-labeled insulin (HIR Kd).

The target of experiment [5] is T3, soluble human insulin receptor-immunoglobulin heavy chain chimera (sIR-Fc) (Homo sapiens, UniProt P06213).
T3 construct: replacing the transmembrane domain and the intracellular domain of IR with constant domains from immunoglobulin Fc or λ subunits; made in house; host or cells: human embryonic kidney 293 cells (Bass et al.)
T3 sequence (P06213 28-758 limits assumed, stated change not applied): as the sequence (P06213 28-758 limits assumed) above
T3 sequence (P06213 763-956 limits assumed, stated change not applied): as the sequence (P06213 763-956 limits assumed) above
The experiment can be described thus: Fluorescence polarization, competition with FITC-RP9 for sIR-Fc. In kind it is binding. The note with it: higher values indicated higher affinity for IR than IGF-1R. In general terms: Polarisation of emitted light reports the rotation of a fluorescent probe.

The test system of experiment [6] is FDC-P2 cells expressing the IL-3 and human IGF-1R receptors. Briefly: IGF-1 proliferation assay in FDC-P2 cells, agonist format. Particulars: FDC-P2 cells, agonist format; for EC50: read-out: nM ED50 Growth.
[7] abbreviates: FFC assay potency grade, 0, + to ++++++, −.
[8] abbreviates: MBP-fusion or recombinant peptide as listed.
The mark [9] stands for this setting: free fat cell assay potency class, Table 7.

Positions of bridges follow the written chain, without caps; N, C: chain ends. Residues, ends and D or L forms follow the SMILES beside them. No end group written: not given here. Where only a bound is given, the exact number is not on record here.

T2 sequence (P06213 28-758 limits assumed): as the sequence (P06213 28-758 limits assumed) above
T2 sequence (P06213 763-1382 limits assumed): as the sequence (P06213 763-1382 limits assumed) above
Sequence of IGF-1R (P08069 31-736 limits assumed): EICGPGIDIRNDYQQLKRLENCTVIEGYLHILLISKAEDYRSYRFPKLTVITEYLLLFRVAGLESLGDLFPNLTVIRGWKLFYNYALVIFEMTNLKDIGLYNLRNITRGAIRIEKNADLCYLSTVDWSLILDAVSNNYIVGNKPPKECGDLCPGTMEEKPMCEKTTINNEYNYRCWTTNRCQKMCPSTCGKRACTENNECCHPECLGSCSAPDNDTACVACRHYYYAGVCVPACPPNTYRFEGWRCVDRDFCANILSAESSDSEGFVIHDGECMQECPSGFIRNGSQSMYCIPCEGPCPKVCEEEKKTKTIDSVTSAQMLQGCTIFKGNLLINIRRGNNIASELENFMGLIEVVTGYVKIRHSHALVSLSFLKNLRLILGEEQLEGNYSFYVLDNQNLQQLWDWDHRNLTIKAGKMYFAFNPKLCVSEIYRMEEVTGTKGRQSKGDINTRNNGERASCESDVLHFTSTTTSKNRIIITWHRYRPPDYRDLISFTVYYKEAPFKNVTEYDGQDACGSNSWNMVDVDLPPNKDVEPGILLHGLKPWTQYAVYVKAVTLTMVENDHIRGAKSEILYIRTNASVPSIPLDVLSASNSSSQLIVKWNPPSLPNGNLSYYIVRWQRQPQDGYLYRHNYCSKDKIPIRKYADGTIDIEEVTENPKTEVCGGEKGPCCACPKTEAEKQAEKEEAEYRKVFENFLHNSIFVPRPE
Sequence of IGF-1R (P08069 741-935 limits assumed): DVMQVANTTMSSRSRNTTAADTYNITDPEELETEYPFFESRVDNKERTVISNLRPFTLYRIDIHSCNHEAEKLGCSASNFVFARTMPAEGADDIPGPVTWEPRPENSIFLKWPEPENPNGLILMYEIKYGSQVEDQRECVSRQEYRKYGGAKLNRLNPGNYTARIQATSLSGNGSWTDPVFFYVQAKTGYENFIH

Turning to `CC(C)C[C@H](NC(=O)CNC(=O)[C@H](CCCNC(=N)N)NC(=O)CNC(=O)[C@H](CCC(=O)O)NC(=O)[C@@H](N)C(C)C)C(=O)N[C@@H](Cc1ccccc1)C(=O)N[C@@H](Cc1ccc(O)cc1)C(=O)N[C@@H](CC(=O)O)C(=O)N[C@@H](CC(C)C)C(=O)N[C@@H](CC(C)C)C(=O)N[C@@H](CCCNC(=N)N)C(=O)N[C@@H](CCC(N)=O)C(=O)N[C@@H](CC(C)C)C(=O)N[C@@H](CC(C)C)C(=O)N[C@@H](C)C(=O)N[C@@H](CCCNC(=N)N)C(=O)N[C@@H](CCCNC(=N)N)C(=O)N[C@@H](CCC(N)=O)C(=O)N[C@@H](CC(N)=O)C(=O)NCC(=O)O` [20E2B-3-C6-IGFR], the IC50 against IR [1] is greater than 5 µM. Besides, the “Comparisons IR/IGF-1R” value on IR [2] was 0.1. Further, on IGF-1R, the “Comparisons IGF-1R/IR” value came to 14.8.
As to `CC(C)[C@H](NC(=O)[C@H](Cc1ccccc1)NC(=O)[C@H](Cc1c[nH]c2ccccc12)NC(=O)[C@H](CC(=O)O)NC(=O)[C@H](Cc1ccc(O)cc1)NC(=O)[C@H](Cc1ccccc1)NC(=O)[C@H](CC(N)=O)NC(=O)[C@H](CCC(=O)O)NC(=O)[C@H](Cc1c[nH]cn1)NC(=O)[C@@H](N)Cc1ccccc1)C(=O)N[C@@H](CCCNC(=N)N)C(=O)N[C@@H](CCC(N)=O)C(=O)N[C@H](C(=O)N[C@@H](CO)C(=O)N[C@@H](CCCCN)C(=O)N[C@@H](CCCCN)C(=O)NCCCC[C@H](NC(=O)[C@H](CCCCN)NC(=O)[C@H](CCCCN)NC(=O)[C@H](CO)NC(=O)[C@@H](NC(=O)[C@H](CCC(N)=O)NC(=O)[C@H](CCCNC(=N)N)NC(=O)[C@@H](NC(=O)[C@H](Cc1ccccc1)NC(=O)[C@H](Cc1c[nH]c2ccccc12)NC(=O)[C@H](CC(=O)O)NC(=O)[C@H](Cc1ccc(O)cc1)NC(=O)[C@H](Cc1ccccc1)NC(=O)[C@H](CC(N)=O)NC(=O)[C@H](CCC(=O)O)NC(=O)[C@H](Cc1c[nH]cn1)NC(=O)[C@@H](N)Cc1ccccc1)C(C)C)C(C)C)C(=O)O)C(C)C` [Peptide S145], in experiment [3] (setting [7]), the FFC result is on record as “++”.
Regarding `CC(C)[C@H](NC(=O)[C@H](Cc1ccccc1)NC(=O)[C@H](Cc1c[nH]c2ccccc12)NC(=O)[C@H](CC(=O)O)NC(=O)[C@H](Cc1ccc(O)cc1)NC(=O)[C@H](Cc1ccccc1)NC(=O)[C@H](CC(N)=O)NC(=O)[C@H](CCC(=O)O)NC(=O)[C@H](Cc1c[nH]cn1)NC(=O)[C@H](Cc1ccccc1)NC(=O)[C@@H](N)CNC(=O)CON=CCCCCC=NOCC(=O)NC[C@H](N)C(=O)N[C@@H](Cc1ccccc1)C(=O)N[C@@H](Cc1c[nH]cn1)C(=O)N[C@@H](CCC(=O)O)C(=O)N[C@@H](CC(N)=O)C(=O)N[C@@H](Cc1ccccc1)C(=O)N[C@@H](Cc1ccc(O)cc1)C(=O)N[C@@H](CC(=O)O)C(=O)N[C@@H](Cc1c[nH]c2ccccc12)C(=O)N[C@@H](Cc1ccccc1)C(=O)N[C@H](C(=O)N[C@@H](CCCNC(=N)N)C(=O)N[C@@H](CCC(N)=O)C(=O)N[C@H](C(=O)N[C@@H](CO)C(=O)N[C@@H](CCCCN)C(=O)N[C@@H](CCCCN)C(N)=O)C(C)C)C(C)C)C(=O)N[C@@H](CCCNC(=N)N)C(=O)N[C@@H](CCC(N)=O)C(=O)N[C@H](C(=O)N[C@@H](CO)C(=O)N[C@@H](CCCCN)C(=O)N[C@@H](CCCCN)C(N)=O)C(C)C` [Peptide S169], the FFC result in experiment [3] (setting [7]) is “++”.
For `CC(C)[C@H](NC(=O)[C@H](Cc1ccccc1)NC(=O)[C@H](Cc1c[nH]c2ccccc12)NC(=O)[C@H](CC(=O)O)NC(=O)[C@H](Cc1ccc(O)cc1)NC(=O)[C@H](Cc1ccccc1)NC(=O)[C@H](CC(N)=O)NC(=O)[C@H](CCC(=O)O)NC(=O)[C@H](Cc1c[nH]cn1)NC(=O)[C@H](Cc1ccccc1)NC(=O)[C@@H](N)CNC(=O)CON=CCCCCCCC=NOCC(=O)NC[C@H](N)C(=O)N[C@@H](Cc1ccccc1)C(=O)N[C@@H](Cc1c[nH]cn1)C(=O)N[C@@H](CCC(=O)O)C(=O)N[C@@H](CC(N)=O)C(=O)N[C@@H](Cc1ccccc1)C(=O)N[C@@H](Cc1ccc(O)cc1)C(=O)N[C@@H](CC(=O)O)C(=O)N[C@@H](Cc1c[nH]c2ccccc12)C(=O)N[C@@H](Cc1ccccc1)C(=O)N[C@H](C(=O)N[C@@H](CCCNC(=N)N)C(=O)N[C@@H](CCC(N)=O)C(=O)N[C@H](C(=O)N[C@@H](CO)C(=O)N[C@@H](CCCCN)C(=O)N[C@@H](CCCCN)C(N)=O)C(C)C)C(C)C)C(=O)N[C@@H](CCCNC(=N)N)C(=O)N[C@@H](CCC(N)=O)C(=O)N[C@H](C(=O)N[C@@H](CO)C(=O)N[C@@H](CCCCN)C(=O)N[C@@H](CCCCN)C(N)=O)C(C)C` [Peptide S172], in experiment [3] (setting [7]), the FFC result is given as “+++”.
Consider `CC(C)[C@H](NC(=O)[C@H](Cc1ccccc1)NC(=O)[C@H](Cc1c[nH]c2ccccc12)NC(=O)[C@H](CC(=O)O)NC(=O)[C@H](Cc1ccc(O)cc1)NC(=O)[C@H](Cc1ccccc1)NC(=O)[C@H](CC(N)=O)NC(=O)[C@H](CCC(=O)O)NC(=O)[C@H](Cc1c[nH]cn1)NC(=O)[C@H](Cc1ccccc1)NC(=O)CNC(=O)CNC(=O)[C@@H](N)CSSC[C@H](N)C(=O)NCC(=O)NCC(=O)N[C@@H](Cc1ccccc1)C(=O)N[C@@H](Cc1c[nH]cn1)C(=O)N[C@@H](CCC(=O)O)C(=O)N[C@@H](CC(N)=O)C(=O)N[C@@H](Cc1ccccc1)C(=O)N[C@@H](Cc1ccc(O)cc1)C(=O)N[C@@H](CC(=O)O)C(=O)N[C@@H](Cc1c[nH]c2ccccc12)C(=O)N[C@@H](Cc1ccccc1)C(=O)N[C@H](C(=O)N[C@@H](CCCNC(=N)N)C(=O)N[C@@H](CCC(N)=O)C(=O)N[C@H](C(=O)N[C@@H](CO)C(=O)N[C@@H](CCCCN)C(=O)N[C@@H](CCCCN)C(=O)O)C(C)C)C(C)C)C(=O)N[C@@H](CCCNC(=N)N)C(=O)N[C@@H](CCC(N)=O)C(=O)N[C@H](C(=O)N[C@@H](CO)C(=O)N[C@@H](CCCCN)C(=O)N[C@@H](CCCCN)C(=O)O)C(C)C` [Peptide S228], for which, in experiment [3] (setting [7]), the FFC entry is on record as “++”.
For the molecule `CC[C@@H](C)[C@@H](NC(=O)[C@H](CCC(=O)O)NC(=O)[C@H](CC(=O)O)NC(=O)[C@H](Cc1ccccc1)NC(=O)[C@H](Cc1c[nH]c2ccccc12)NC(=O)[C@H](CCC(=O)O)NC(=O)[C@H](Cc1ccc(O)cc1)NC(=O)[C@H](Cc1ccccc1)NC(=O)[C@H](CCC(=O)O)NC(=O)[C@H](CCCCN)NC(=O)[C@H](CC(N)=O)NC(=O)[C@H](CC(N)=O)NC(=O)[C@@H](N)CCCCN)C(=O)NCC(=O)N[C@H](CCC(N)=O)C(=O)O` [Peptide S320] (HELM PEPTIDE1{K.N.N.K.E.F.Y.E.W.F.D.E.[dI].G.[dQ]}$$$$V2.0; N-terminus and C-terminus assumed), the FFC in experiment [3] (setting [7]) came out at 0.
(ESFYDWFERQLGK)2-23 [Peptide S415]: the “activity in the free fat cell (FFC) assay / at IR, in words” value in experiment [3] was “highly potent”.
As for “DYKDDDDKVRVDWLQRNANFYAWFVAELGGGSGGSGGSGGSGRVDWLQRNANFYDWFVAELGAAAGAPVPYPDPLEPRAA [RB509]”, in experiment [4] (setting [8]), the Kd stood at 0.055 µM.
For the molecule ESFYDWFERQ [Peptide S400], the FFC in experiment [3] (Table 6, free fat cell assay) worked out at 0; in experiment [3] (setting [9]), 0.
For FHENFYDWFVQRVSKK [H2C (D117)], the “Bndg Ratio IGF-1R/IR” value in experiment [5] turned out to be 9.
GRFYGWFQDAIDQLMPWGFD [RP-3] registered an IC50 on IR [1] greater than 10 µM.
For the molecule GSLDESFYDWFER [Peptide S396], the FFC in experiment [3] (Table 6, free fat cell assay) is 0; in experiment [3] (setting [9]) it was 0.
On to GSLDESFYDWFERQ [Peptide S394], for which the “activity in the free fat cell (FFC) assay / at IR, in words” value in experiment [3] is reported as “potency similar to full-length RP9 monomer peptides”. In addition, the FFC result in experiment [3] (setting [9]) is given as “+”.
With GSLDESFYDWFERQL [Peptide S395], the Kd in experiment [4] (Table 6) was 0.091 µM. For the same molecule, in experiment [3] (Table 6, free fat cell assay), the FFC entry is on record as “+”.
For the molecule GSLDESFYDWFERQLG [Peptide S386], the FFC result in experiment [3] (setting [7]) is “+”.
As to GSRPVFHEQFYEWFVDQLGL [RP-1], on IR [1], half-maximal inhibition (IC50) was put at 1 µM.
Consider “MADYKDDDDKGSLDESFYDWFERQLGKKGGSGGSGSLDESFYDWFERQLGKKAAAGAPVPYPDPLEPRPG [RB521]”, for which, in experiment [4] (setting [8]), the Kd turned out to be 0.044 µM.
Take “MADYKDDDDKWLDQEWAWVQCEVYGRGCPSGGSGGSGSLDESFYDWFERQLGKKAAA(ETAG)PG [Peptide 539]”: the “activity in the free fat cell (FFC) assay / at IR, in words” value in experiment [3] is “full agonist”.
With MGSLDESFYDWFERQLGEEEGGDHHHHHHPG [RB569], the Kd in experiment [4] (setting [8]) stood at 0.21 µM.
Take “MQNDDGSLDESFYDWFERQLGEEEGGDHHHHHHPG [RB570]”: in experiment [4] (setting [8]), the Kd was 0.025 µM.
As for PPWGARFYDAIEQLVFDNL [RP-4], half-maximal inhibition against IR [1] (IC50) was put at 5 µM.
On the same count and under the same terms, then QSFYDYIEELLGGEWKK [Peptide 20E2-PD1-IR], with greater than 5 µM.
For RB596 (MQNDDGSLDESFYDWFERQLGHHHHHHPG), the FF in experiment [3] (fat cell potency, symbols ++ and − not defined in the table) is 9.4*10^−8.
As for RSEASFHVEFYSWFEEQLRS [RP-2], 1 µM corresponded to half-maximal inhibition at IR [1] (IC50).
“WLDQERAWLWCEISGRGCLSGGSGGSGGSGGSGSLDESFYDWFERQLGKK (disulfide 11-18 (inferred)) [D815-RP9 12 aa]”: in experiment [6], the “Max Action” value amounted to 100% and the EC50 was determined as 10000 nM.
Take “WLDQERAWLWCEISGRGCLSGGSGGSGSLDESFYDWFERQLGKK (disulfide 11-18 (inferred)) [D815-RP9 6 aa]”: in experiment [6], the “Max Action” value is greater than 50% and the EC50 was 50 nM.

A word on the IC50: it is the concentration needed to halve the response being measured. For orientation: Kd means a measure of binding affinity in units of concentration.
